Experiments:
[1] = tested on: β-catenin/Tcf-4 interaction; assay: Co-immunoprecipitation of β-catenin and Myc-tagged Tcf-4 in HCT116 cells; format: cell-based, human; conditions: HCT116 transfected with Myc-tagged Tcf-4, LiCl 50 mM, 50 μM, 24 h
Method: Toward this end, we performed a co-immunoprecipitation study in HCT116 cells transfected with Myc-tagged Tcf-4, treated with the two compounds, and immunoprecipitated with Myc antisera.
HCT116 cells were transiently transfected with the Myc-tagged Tcf-4 plasmid and treated with LiCl (50 mM) and 9 (50 μM) or 10 (50 μM) for 24 h. Lysates were immunoprecipitated using Myc-agarose beads and western blot analysis was performed. […] Myc-agarose beads saturated with the Myc-blocking peptide before immunoprecipitation were used as a negative control.
Co-immunoprecipitation assays were performed as previously described.[16],[60] Briefly, 2 × 10^4/cm^2 HCT116 cells were seeded in a 100 mm dish and incubated overnight at 37 °C. Cells were transfected with pcDNA/Myc Tcf-4 (Addgene plasmid #16512; http://n2t.net/addgene:16512; RRID:Addgene_16512)[29] and, after overnight incubation, were starved for 8 h in a medium containing Opti-MEM (#31985070, Thermo Fisher Scientific), FBS 0.5%, pen/strep 1%, NaPyr 1%, NeAA 1%, and then co-treated with 50 mM LiCl and DMSO or 50 μM compound 9 or 50 μM compound […] for 24 h. Cells were collected at the end of the treatments and lysed in a buffer containing 0.5% Triton X-100, 0.5 mM EDTA, and 1 mM DTT. […] Chemioluminescence was detected using WesternBright ECL (#K-12045-D50, Advansta), according to the manufacturer’s protocol.

[2] = tested on: β-catenin; assay: Wnt reporter assay (TOP/FOP luciferase) in LiCl-treated HCT116 cells; format: cell-based; conditions: Homo sapiens, HCT-116, read-out: IC50, inhibition of β-catenin (luciferase reporter), LiCl 50 mM, 24 h
Method: Compounds 9 and 10 were assayed at increasing 10 and 100 nM and 1 μM concentrations in HCT116 cells transfected with luciferase-based vectors and treated with LiCl (50 mM). TOP TK is a well-established Wnt reporter vector containing eight sequences of Tcf/Lef binding site upstream of the timidine kinase (TK) minimal promoter, driving the expression of firefly luciferase.
Figure 6 HCT116 cells were transfected with luciferase-based vectors and treated with LiCl (50 mM) together with increasing concentrations of compound 9 or 10. Cells were harvested 24 h post-treatment and assayed for luciferase activity. Inhibitions were calculated as the luciferase/renilla ratio of the treated samples vs. the luciferase/renilla ratio of the untreated (control) samples. Data are represented as the mean ± SD of three independent experiments, each performed in triplicate. **p < 0.01, ***p < 0.001, n.s = not significant, as determined by analysis of variance (ANOVA).
Luciferase assays were performed as previously described.[58],[59] Briefly, HCT116 cells were transfected with Topflash reporter (M50 Super 8x TOPFlash, containing 8 repeats of TCF/LEF binding sites) or Fopflash reporter (M51 Super 8x FOPFlash, containing the mutated TCF/LEF binding sites) plasmids using the Dreamfect Gold Transfection Reagent (#DG80500, OZ Biosciences). […]

**Q.** How did the “association between β-catenin and Tcf-4 (co-immunoprecipitation)” value [1] turn out when `O=S(=O)(Nc1ccc(-c2ccccn2)cc1)c1ccc(Br)cc1` [Compound 9, 4-Bromo-N-(4-(pyridin-2-yl)phenyl)benzenesulfonamide] was run?
**A.** The value was “completely abrogated the association”.

**Q.** And the IC50 [2]?
**A.** The IC50 was greater than 1000 nM.
